Test results reported in ChEMBL document CHEMBL1201861, “Genomics of Drug Sensitity in Cancer screening data, Wellcome Trust Sanger Institute”.

These compounds were tested on Calu-6 (assay: cells). Conditions: Homo sapiens, Calu-6.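 Note: growth of human Calu-6 cells, read out by a cell viability assay, IC50 marking inhibition.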
Assay type: functional, cell-based, Homo sapiens
Description: SANGER: Inhibition of human Calu-6 cell growth in a cell viability assay.

SMILES | IC50 [µM]
CCN(CC)CCCCNc1ncc2cc(-c3cc(OC)cc(OC)c3)c(NC(=O)NC(C)(C)C)nc2n1 [PD-173074] | > 2

Each compound was assayed on NCI-H2126 (assay: cells). Conditions: Homo sapiens, NCI-H2126.
Assay type: functional, cell-based, Homo sapiens
Description: SANGER: Inhibition of human NCI-H2126 cell growth in a cell viability assay.

SMILES | IC50 [µM]
CCN(CC)CCCCNc1ncc2cc(-c3cc(OC)cc(OC)c3)c(NC(=O)NC(C)(C)C)nc2n1 [PD-173074] | > 2

These compounds were tested on AM-38 (assay: cells). Conditions: Homo sapiens, AM-38.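 Note: growth inhibition of AM-38 cells of human origin, read out by a cell viability assay.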
Assay type: functional, cell-based, Homo sapiens
Description: SANGER: Inhibition of human AM-38 cell growth in a cell viability assay.

SMILES | IC50 [µM]
CCN(CC)CCCCNc1ncc2cc(-c3cc(OC)cc(OC)c3)c(NC(=O)NC(C)(C)C)nc2n1 [PD-173074] | > 2

Each compound was assayed on EW-1 (assay: cells). Conditions: Homo sapiens, EW-1.
Assay type: functional, cell-based, Homo sapiens
Description: SANGER: Inhibition of human EW-1 cell growth in a cell viability assay.

SMILES | IC50 [µM]
CCN(CC)CCCCNc1ncc2cc(-c3cc(OC)cc(OC)c3)c(NC(=O)NC(C)(C)C)nc2n1 [PD-173074] | > 2

These compounds were tested on NCI-H226 (assay: cells). Conditions: Homo sapiens, NCI-H226.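 Note: cell viability read-out used to gauge growth inhibition of the cells.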
Assay type: functional, cell-based, Homo sapiens
Description: SANGER: Inhibition of human NCI-H226 cell growth in a cell viability assay.

SMILES | IC50 [µM]
CCN(CC)CCCCNc1ncc2cc(-c3cc(OC)cc(OC)c3)c(NC(=O)NC(C)(C)C)nc2n1 [PD-173074] | > 2

Each compound was assayed on U-87 MG (assay: cells). Conditions: Homo sapiens, U-87 MG.
Assay type: functional, cell-based, Homo sapiens, U-87MG ATCC
Description: SANGER: Inhibition of human U-87-MG cell growth in a cell viability assay.

SMILES | IC50 [µM]
CCN(CC)CCCCNc1ncc2cc(-c3cc(OC)cc(OC)c3)c(NC(=O)NC(C)(C)C)nc2n1 [PD-173074] | > 2

These compounds were tested on A498 (assay: cells). Conditions: Homo sapiens, A498.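 Note: growth inhibition of human A498 cells, read out with a cell viability assay.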
Assay type: functional, cell-based, Homo sapiens
Description: SANGER: Inhibition of human A498 cell growth in a cell viability assay.

SMILES | IC50 [µM]
CCN(CC)CCCCNc1ncc2cc(-c3cc(OC)cc(OC)c3)c(NC(=O)NC(C)(C)C)nc2n1 [PD-173074] | > 2

These compounds were tested on NB5 (assay: cells). Conditions: Homo sapiens, NB5.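 Note: growth inhibition of NB5 cells, read out as cell viability.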
Assay type: functional, cell-based, Homo sapiens
Description: SANGER: Inhibition of human NB5 cell growth in a cell viability assay.

SMILES | IC50 [µM]
CCN(CC)CCCCNc1ncc2cc(-c3cc(OC)cc(OC)c3)c(NC(=O)NC(C)(C)C)nc2n1 [PD-173074] | > 2

What follows are compounds tested on SK-MEL-2 (assay: cells). Conditions: Homo sapiens, SK-MEL-2.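 Note: growth inhibition of human SK-MEL-2 cells measured with a cell viability assay.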
Assay type: functional, cell-based, Homo sapiens
Description: SANGER: Inhibition of human SK-MEL-2 cell growth in a cell viability assay.

SMILES | IC50 [µM]
CCN(CC)CCCCNc1ncc2cc(-c3cc(OC)cc(OC)c3)c(NC(=O)NC(C)(C)C)nc2n1 [PD-173074] | > 2

Each compound was assayed on TE-9 (assay: cells). Conditions: Homo sapiens, TE-9.
Assay type: functional, cell-based, Homo sapiens
Description: SANGER: Inhibition of human TE-9 cell growth in a cell viability assay.

SMILES | IC50 [µM]
CCN(CC)CCCCNc1ncc2cc(-c3cc(OC)cc(OC)c3)c(NC(=O)NC(C)(C)C)nc2n1 [PD-173074] | > 2

These compounds were tested on LNCaP-Clone-FGC (assay: cells). Conditions: Homo sapiens, LNCaP-Clone-FGC.
Assay type: functional, cell-based, Homo sapiens
Description: SANGER: Inhibition of human LNCaP-Clone-FGC cell growth in a cell viability assay.

SMILES | IC50 [µM]
CCN(CC)CCCCNc1ncc2cc(-c3cc(OC)cc(OC)c3)c(NC(=O)NC(C)(C)C)nc2n1 [PD-173074] | > 2

Each compound was assayed on ACN (assay: cells). Conditions: Homo sapiens, ACN.
Assay type: functional, cell-based, Homo sapiens
Description: SANGER: Inhibition of human ACN cell growth in a cell viability assay.

SMILES | IC50 [µM]
CCN(CC)CCCCNc1ncc2cc(-c3cc(OC)cc(OC)c3)c(NC(=O)NC(C)(C)C)nc2n1 [PD-173074] | > 2

What follows are compounds tested on NCI-H1092 (assay: cells). Conditions: Homo sapiens, NCI-H1092.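 Note: cell growth inhibition measured with a cell viability assay.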
Assay type: functional, cell-based, Homo sapiens
Description: SANGER: Inhibition of human NCI-H1092 cell growth in a cell viability assay.

SMILES | IC50 [µM]
CCN(CC)CCCCNc1ncc2cc(-c3cc(OC)cc(OC)c3)c(NC(=O)NC(C)(C)C)nc2n1 [PD-173074] | > 2

Each compound was assayed on UACC-257 (assay: cells). Conditions: Homo sapiens, UACC-257.
Assay type: functional, cell-based, Homo sapiens
Description: SANGER: Inhibition of human UACC-257 cell growth in a cell viability assay.

SMILES | IC50 [µM]
CCN(CC)CCCCNc1ncc2cc(-c3cc(OC)cc(OC)c3)c(NC(=O)NC(C)(C)C)nc2n1 [PD-173074] | > 2

The compounds below were run on C8166 (assay: cells). Conditions: Homo sapiens, C8166.
Assay type: functional, cell-based, Homo sapiens
Description: SANGER: Inhibition of human C8166 cell growth in a cell viability assay.

SMILES | IC50 [µM]
CCN(CC)CCCCNc1ncc2cc(-c3cc(OC)cc(OC)c3)c(NC(=O)NC(C)(C)C)nc2n1 [PD-173074] | > 2

The compounds below were run on D-263MG (assay: cells). Conditions: Homo sapiens, D-263MG.
Assay type: functional, cell-based, Homo sapiens
Description: SANGER: Inhibition of human D-263MG cell growth in a cell viability assay.

SMILES | IC50 [µM]
CCN(CC)CCCCNc1ncc2cc(-c3cc(OC)cc(OC)c3)c(NC(=O)NC(C)(C)C)nc2n1 [PD-173074] | 0.712

These compounds were tested on LC-2-ad (assay: cells). Conditions: Homo sapiens, LC-2-ad.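 Note: growth inhibition of human LC-2-ad cells, read out with a cell viability assay.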
Assay type: functional, cell-based, Homo sapiens
Description: SANGER: Inhibition of human LC-2-ad cell growth in a cell viability assay.

SMILES | IC50 [µM]
CCN(CC)CCCCNc1ncc2cc(-c3cc(OC)cc(OC)c3)c(NC(=O)NC(C)(C)C)nc2n1 [PD-173074] | > 2

What follows are compounds tested on SK-PN-DW (assay: cells). Conditions: Homo sapiens, SK-PN-DW.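 Note: growth inhibition measured with a viability assay on these cells.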
Assay type: functional, cell-based, Homo sapiens
Description: SANGER: Inhibition of human SK-PN-DW cell growth in a cell viability assay.

SMILES | IC50 [µM]
CCN(CC)CCCCNc1ncc2cc(-c3cc(OC)cc(OC)c3)c(NC(=O)NC(C)(C)C)nc2n1 [PD-173074] | > 2

What follows are compounds tested on DB (assay: cells). Conditions: Homo sapiens, DB.
Assay type: functional, cell-based, Homo sapiens
Description: SANGER: Inhibition of human DB cell growth in a cell viability assay.

SMILES | IC50 [µM]
CCN(CC)CCCCNc1ncc2cc(-c3cc(OC)cc(OC)c3)c(NC(=O)NC(C)(C)C)nc2n1 [PD-173074] | > 2

What follows are compounds tested on KM12 (assay: cells). Conditions: Homo sapiens, KM12.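 Note: KM12 cell growth inhibition, read out with a cell viability assay.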
Assay type: functional, cell-based, Homo sapiens
Description: SANGER: Inhibition of human KM12 cell growth in a cell viability assay.

SMILES | IC50 [µM]
CCN(CC)CCCCNc1ncc2cc(-c3cc(OC)cc(OC)c3)c(NC(=O)NC(C)(C)C)nc2n1 [PD-173074] | > 2

What follows are compounds tested on RS4-11 (assay: cells). Conditions: Homo sapiens, RS4-11.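 Note: growth inhibition of RS4-11 cells, read out by a cell viability assay.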
Assay type: functional, cell-based, Homo sapiens
Description: SANGER: Inhibition of human RS4-11 cell growth in a cell viability assay.

SMILES | IC50 [µM]
CCN(CC)CCCCNc1ncc2cc(-c3cc(OC)cc(OC)c3)c(NC(=O)NC(C)(C)C)nc2n1 [PD-173074] | 1.34

These compounds were tested on NH-12 (assay: cells). Conditions: Homo sapiens, NH-12.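 Note: growth inhibition of NH-12 cells, read out with a cell viability assay.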
Assay type: functional, cell-based, Homo sapiens
Description: SANGER: Inhibition of human NH-12 cell growth in a cell viability assay.

SMILES | IC50 [µM]
CCN(CC)CCCCNc1ncc2cc(-c3cc(OC)cc(OC)c3)c(NC(=O)NC(C)(C)C)nc2n1 [PD-173074] | > 2

Each compound was assayed on HT-144 (assay: cells). Conditions: Homo sapiens, HT-144.
Assay type: functional, cell-based, Homo sapiens
Description: SANGER: Inhibition of human HT-144 cell growth in a cell viability assay.

SMILES | IC50 [µM]
CCN(CC)CCCCNc1ncc2cc(-c3cc(OC)cc(OC)c3)c(NC(=O)NC(C)(C)C)nc2n1 [PD-173074] | > 2
